In US6727263B2, “Indole and 2,3-dihydroindole derivatives, their preparation and use” (H. Lundbeck A/S, priority 1997, dated 2004):
pIC50: −log10 of the molar value. Structures can show the parent of a compound that is named as a salt. Where two headings read alike, the source gives them in different places.

Columns and labels:
human 5-HT1A receptors = target: T1, human 5-HT1A receptors (Homo sapiens, UniProt P08908); experiment: Inhibition of 3H-5-CT binding to human 5-HT1A receptors
T1 construct: expressed in transfected cells; host or cells: HeLa cells (HA7), used as cell homogenate
T1 sequence (P08908 1-422): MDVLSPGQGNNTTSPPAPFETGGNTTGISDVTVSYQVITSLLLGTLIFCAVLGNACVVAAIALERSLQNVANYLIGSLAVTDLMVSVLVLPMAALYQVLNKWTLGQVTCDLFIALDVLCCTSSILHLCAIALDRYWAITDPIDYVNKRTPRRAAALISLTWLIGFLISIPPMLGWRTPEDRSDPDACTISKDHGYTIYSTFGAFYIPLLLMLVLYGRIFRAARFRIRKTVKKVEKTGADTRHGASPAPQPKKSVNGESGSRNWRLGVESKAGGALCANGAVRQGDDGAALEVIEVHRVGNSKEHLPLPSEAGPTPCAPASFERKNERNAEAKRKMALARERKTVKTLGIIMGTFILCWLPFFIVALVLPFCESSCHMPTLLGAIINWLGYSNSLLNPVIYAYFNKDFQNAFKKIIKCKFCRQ
Description: Inhibition of ^3H-5-CT Binding to Human 5-HT1A Receptors
Human 5-HT1A receptors (40 μg of cell homogenate) were incubated for 15 minutes at 37° C. in 50 mM Tris buffer at pH 7.7 in the presence of ^3H-5-CT. Non-specific binding was determined by including 10 μM of metergoline. The reaction was terminated by rapid filtration through Unifilter GF/B filters on a Tomtec Cell Harvester. Filters were counted in a Packard Top Counter.

[1] = test system: 3H-5-HT uptake into whole rat brain synaptosomes; experiment: Inhibition of 3H-5-HT uptake into rat brain synaptosomes; format: biochemical; conditions: 3H-5-HT accumulation into whole rat brain synaptosomes, in vitro; read-out: Inhibition of serotonin reuptake IC50
Description: Inhibition of ^3H-5-HT Uptake Into Rat Brain Synaptosomes
Using this method the ability of drugs to inhibit the accumulation of ^3H-5-HT into whole rat brain synaptosomes is determined in vitro.

cloned 5-HT1A receptors = target: T2, cloned 5-HT1A receptors (Homo sapiens, UniProt P08908); experiment: Antagonism of 5-HT induced inhibition of forskolin induced cAMP accumulation; format: cell-based; conditions: cloned 5-HT1A receptors in transfected HeLa cells (HA7)
T2 construct: expressed in transfected cells; host or cells: HeLa cells (HA7)
T2 sequence (P08908 1-422): T1 sequence (P08908 1-422)
Description: The assay was performed as a modification of the method described by Pauwels, P. J et al, Biochem. Pharmacol. 1993, 45, 375.

[2] = read-out: Inhibition of 3H-5-CT binding IC50, cloned human 5-HT1A receptors expressed in transfected HeLa cells (HA7), cell homogenate, 15 minutes at 37° C., pH 7.7

Molecule	melting point [°C]	pIC50 [1]	pIC50 (cloned 5-HT1A receptors)	also measured
Fc1ccc2[nH]cc(CCN3CCC(c4cccc5ccoc45)CC3)c2c1.O=C(O)C(=O)O	191 to 194	–	–	–
Brc1ccc2[nH]cc(CCN3CCC(c4cccc5ccoc45)CC3)c2c1.O=C(O)C(=O)O	153 to 157	–	–	–
Fc1ccc2[nH]cc(CCN3CCN(c4cccc5c4OCC5)CC3)c2c1.O=C(O)C(=O)O	145 to 149	–	–	–
Clc1ccc2[nH]cc(CCN3CCN(c4cccc5ccsc45)CC3)c2c1.O=C(O)C(=O)O	175.2 to 176.6	–	–	–
Clc1ccc2[nH]cc(CCN3CCN(c4cccc5c4SCC=C5)CC3)c2c1	152 to 153	–	–	–
Brc1ccc2[nH]cc(CCN3CCN(c4cccc5c4SCC=C5)CC3)c2c1	166 to 167	–	–	–
Brc1ccc2[nH]cc(CCN3CC=C(c4cccc5ccoc45)CC3)c2c1.O=C(O)C(=O)O	185 to 194	–	–	–
CC1(C)Cc2cccc(N3CCN(CCc4c[nH]c5cc(Cl)ccc45)CC3)c2O1.O=C(O)/C=C/C(=O)O	165 to 167	–	–	–
Clc1ccc2ccn(CCN3CCN(c4cccc5c4OCCO5)CC3)c2c1.O=C(O)C(=O)O	234 to 235	–	–	–
Clc1ccc2c(ccn2CCN2CCN(c3cccc4c3OCCO4)CC2)c1.O=C(O)C(=O)O	234 to 235	–	–	–
Fc1ccc2c(ccn2CCN2CCN(c3cccc4c3OCCO4)CC2)c1.O=C(O)C(=O)O	230 to 231	–	–	–
O=C(O)C(=O)O.c1cc2c(c(N3CCN(CCn4ccc5ccccc54)CC3)c1)OCCO2	225 to 229	–	–	–
O=C(O)C(=O)O.c1cc2c(c(N3CCN(CCn4ccc5ccccc54)CC3)c1)OCC2	223 to 226	–	–	–
Clc1ccc2c(c1)C(CCN1CCN(c3cccc4c3OCCO4)CC1)CN2.O=C(O)C(=O)O (stereo not drawn)	153 to 157	–	–	–
C=CCn1cc(CCN2CCN(c3cccc4c3OCCO4)CC2)c2ccccc21.O=C(O)C(=O)O	187 to 190	–	–	–
C#CCn1cc(CCN2CCN(c3cccc4c3OCCO4)CC2)c2ccccc21.O=C(O)C(=O)O	168 to 172	–	–	–
O=C(O)C(=O)O.c1ccc(CN2CC(CCN3CCN(c4cccc5c4OCCO5)CC3)c3ccccc32)cc1 (stereo not drawn)	158 to 165	–	–	–
C=CCN1CC(CCN2CCN(c3cccc4c3OCCO4)CC2)c2ccccc21.O=C(O)C(=O)O (stereo not drawn)	133 to 136	–	–	–
3-[2-[4-(1,4-Benzodioxan-5-yl)Piperazin-1-yl]Ethyl]-6-Chloro-1H-Indole Hemifumarate [Compound 3a]	–	8.28	6.30	pIC50 (human 5-HT1A receptors; [2]): 8.92
3-[2-[4-(1,4-Benzodioxan-5-yl)piperazin-1-yl]ethyl]-5-methyl-1H-indole hemifumarate [Compound 1j]	–	8.46	6.01	pIC50 (human 5-HT1A receptors; [2]): 7.85

Molecule	melting point [°C]	pIC50 [1]	pIC50 (cloned 5-HT1A receptors)	also measured
3-[2-[4-(1,4-Benzodioxan-5-yl)piperazin-1-yl]ethyl]-6-methyl-1H-indole hemifumarate [Compound 1k]	–	7.74	6.24	pIC50 (human 5-HT1A receptors; [2]): 8.70
CC1(C)Cc2cccc(C3CCN(CCc4c[nH]c5cc(Cl)ccc45)CC3)c2O1 (as salt: oxalate) [Compound 1f, 6-Chloro-3-[2-[4-(2,2, -dimethyl-2,3-dihydrobenzofuran-7-yl)piperidin-1-yl]ethyl]-1H-indole oxalate]	190 to 193	–	–	–
CC1(C)Cc2cccc(C3=CCN(CCc4c[nH]c5cc(Cl)ccc45)CC3)c2O1 (as salt: oxalate) [Compound 1g, 6-Chloro-3-[2-[4-(2,2,-dimethyl-2,3,-dihydrohydrobenzofuran-7-yl)-1,2,3,6-tetrahydro-1-pyridyl]ethyl]-1H-indole oxalate]	200 to 204	–	–	–
COc1ccc2[nH]cc(CCN3CCN(c4cccc5c4OCCO5)CC3)c2c1 (as salt: oxalate) [Compound 1i, 3-[2-[4-(1,4-Benzodioxan-5-yl)piperazin-1-y]ethyl]-5-methoxy-1H-indole hemioxalate]	189 to 196	–	–	–
Clc1ccc2[nH]cc(CCN3CCN(c4cccc5c4OCCO5)CC3)c2c1 [Compound 1a, 3-[2-[4-(1,4-Benzodioxan-5-yl)Piperazin-1-yl]Ethyl]-5-Chloro-1H-Indole Oxalate]	–	8.30	5.54	pIC50 (human 5-HT1A receptors): 7.77
Cc1[nH]c2ccccc2c1CCN1CCN(c2cccc3c2OCCO3)CC1.O=C(O)C(=O)O [Compound 1c, 3-[2-[4-(1,4-Benzodioxan-5-yl)piperazin-1-yl]ethyl]-2-methyl-1H-indole oxalate]	205 to 208	7.35	–	pIC50 (human 5-HT1A receptors): 8.60
Cc1cc2c(c(C3CCN(CCc4c[nH]c5cc(Cl)ccc45)CC3)c1)OC(C)(C)C2.O=C(O)/C=C/C(=O)O [Compound 1d, 6-Chloro-3-[2-[4-(2,2,5-trimethyl-2,3-dihydrobenzofuran-7-yl)piperidin-1-yl]ethyl]-1H-indole fumarate]	232 to 237	7.44	–	pIC50 (human 5-HT1A receptors): 7.26
CC1(C)Cc2cccc(C3CCN(CCc4c[nH]c5cc(Cl)ccc45)CC3)c2O1 [Compound 1f, 6-Chloro-3-[2-[4-(2,2, -dimethyl-2,3-dihydrobenzofuran-7-yl)piperidin-1-yl]ethyl]-1H-indole oxalate]	–	8.23	5.74	pIC50 (human 5-HT1A receptors): 8.21
CC1(C)Cc2cccc(C3=CCN(CCc4c[nH]c5cc(Cl)ccc45)CC3)c2O1 [Compound 1g, 6-Chloro-3-[2-[4-(2,2,-dimethyl-2,3,-dihydrohydrobenzofuran-7-yl)-1,2,3,6-tetrahydro-1-pyridyl]ethyl]-1H-indole oxalate]	–	8.42	5.74	pIC50 (human 5-HT1A receptors): 8.55
COc1ccc2[nH]cc(CCN3CCN(c4cccc5c4OCCO5)CC3)c2c1 [Compound 1i, 3-[2-[4-(1,4-Benzodioxan-5-yl)piperazin-1-y]ethyl]-5-methoxy-1H-indole hemioxalate]	–	8.17	6.21	pIC50 (human 5-HT1A receptors): 8.16
Clc1cc2c(c(N3CCN(CCc4c[nH]c5cc(Cl)ccc45)CC3)c1)OCCO2.O=C(O)C(=O)O [Compound 1l, 6-Chloro-3-[2-[4-(7-chloro-1,4-benzodioxan-5-yl)piperazin-1-yl]ethyl]-1H-indole oxalate]	237 to 238	8.11	–	pIC50 (human 5-HT1A receptors): 7.92
Clc1ccc2c(CCN3CCN(c4c(Cl)ccc5c4OCCO5)CC3)c[nH]c2c1.O=C(O)C(=O)O [Compound 1m, 6-Chloro-3-[2-[4-(6-Chloro-1,4-benzodioxan-5-yl)piperazin-1-yl]ethyl]-1H-indole oxalate]	216 to 217	7.24	–	pIC50 (human 5-HT1A receptors): 7.00
Clc1ccc2c(CCN3CCN(c4cccc5c4OCC5)CC3)c[nH]c2c1.O=C(O)C(=O)O [Compound 1o, 6-Chloro-3-[2-[4-(2,3-dihydrobenzofuran-7-yl)piperazin-1-yl]ethyl]-1H-indole oxalate]	205 to 207	–	5.49	–
Clc1ccc2c(CCN3CCN(c4cccc5c4SCC=C5)CC3)c[nH]c2c1 [Compound 1t]	178 to 179	–	–	–
Clc1ccc2c(CCN3CCN(c4cccc5c4SCCC5)CC3)c[nH]c2c1 [Compound 1t]	–	–	5.23	–
Clc1ccc2c(CCN3CCN(c4cccc5ccoc45)CC3)c[nH]c2c1 [Compound 1u, 3-[2-[4-(Benzofuran-7-yl)piperazin-1-yl]ethyl]-6-chloro-1H-indole]	202 to 204	–	5.70	–
Clc1ccc2c(CCN3CC=C(c4cccc5c4OCC5)CC3)c[nH]c2c1.O=C(O)C(=O)O [Compound 1x, 6-Chloro-3-[2-[4-(2,3-dihydrobenzofuran-7-yl)-1,2,3,6-tetrahydropyridin-1-yl]ethyl]-1H-indole oxalate]	211 to 214	–	5.52	–
CC1(C)Cc2cc(Cl)cc(N3CCN(CCc4c[nH]c5ccccc45)CC3)c2O1 [Compound 3b, 3-[2-[4-(5-Chloro-2,2-dimethyl-2,3-dihydrobenzofuran-7-yl)piperazin-1-yl]ethyl]-1H-indole hemifumarate]	–	8.08	–	pIC50 (human 5-HT1A receptors; [2]): 8.44
CC1(C)COc2c(N3CCN(CCc4c[nH]c5cc(Cl)ccc45)CC3)cc(Cl)cc21 [Compound 3c, 6-Chloro-3-[2-[4-(5-chloro-3,3-dimethyl-2,3-dihydrobenzofuran-7-yl)piperazin-1-yl]ethyl]-1H-indole hemifumarate]	–	–	5.59	–
CN1CC(CCN2CCN(c3cccc4c3OCCO4)CC2)c2ccccc21 (stereo not drawn) [Compound 6a, 3-[2-[4-(1,4-Benzodioxan-5-yl)Piperazin-1-yl]Ethyl]-2,3-Dihydro-1-Methyl-1H-Indole Oxalate]	–	–	7.00	–
